Patent US9422293B2 (priority 2006, dated 2016)
pIC50: −log10 of the molar value. Where a name gives a salt, the structure may show the parent alone.

Biological target: rat TRPV1 (Rattus norvegicus (Rat), UniProt O35433)
Details: read-out: Rat IC50

rat TRPV1, sequence (O35433 whole entry): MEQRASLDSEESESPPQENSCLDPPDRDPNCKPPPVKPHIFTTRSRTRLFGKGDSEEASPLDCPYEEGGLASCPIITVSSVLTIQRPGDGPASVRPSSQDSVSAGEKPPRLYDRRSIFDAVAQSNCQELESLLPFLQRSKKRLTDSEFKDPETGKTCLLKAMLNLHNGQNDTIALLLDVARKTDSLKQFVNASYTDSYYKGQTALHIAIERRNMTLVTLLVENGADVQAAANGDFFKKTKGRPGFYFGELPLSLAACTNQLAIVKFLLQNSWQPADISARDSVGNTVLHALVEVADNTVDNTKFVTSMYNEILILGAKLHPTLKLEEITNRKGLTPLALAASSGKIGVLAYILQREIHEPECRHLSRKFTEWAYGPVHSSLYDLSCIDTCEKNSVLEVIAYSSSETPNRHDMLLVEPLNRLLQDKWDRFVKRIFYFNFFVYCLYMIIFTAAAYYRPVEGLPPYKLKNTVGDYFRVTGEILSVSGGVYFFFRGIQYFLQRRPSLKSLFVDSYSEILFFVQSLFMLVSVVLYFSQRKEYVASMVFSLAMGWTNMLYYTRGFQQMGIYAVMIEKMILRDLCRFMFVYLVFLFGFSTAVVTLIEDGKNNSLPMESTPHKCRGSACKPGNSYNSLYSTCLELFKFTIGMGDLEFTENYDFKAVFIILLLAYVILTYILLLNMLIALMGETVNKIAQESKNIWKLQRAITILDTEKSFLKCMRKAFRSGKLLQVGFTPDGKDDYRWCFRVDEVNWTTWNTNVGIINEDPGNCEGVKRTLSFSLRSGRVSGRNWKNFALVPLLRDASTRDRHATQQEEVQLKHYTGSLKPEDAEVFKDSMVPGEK

Compound | pIC50
CC(C)c1nc2c(c(NCCc3ccccc3F)n1)CCN(c1ncccc1C(F)(F)F)CC2 [Example 118, N-[2-(2-Fluorophenyl)ethyl]-2-(1-methylethyl)-7-[3-(trifluoromethyl)pyridin-2-yl]-6,7,8,9-tetrahydro-5H-pyrimido[4,5-d]azepin-4-amine] | 6.30
Nc1nc2c(c(Nc3ccc(C(F)(F)F)cc3)n1)CCN(c1ncccc1C(F)(F)F)CC2 [Example 51, N^4-(4-Trifluoromethyl-phenyl)-7-(3-trifluoromethyl-pyridin-2-yl)-6,7,8,9-tetrahydro-5H-pyrimido[4,5-d]azepine-2,4-diamine] | 5.92
CC(C)(CO)c1ccc(Nc2nc(N3CCCCC3)nc3c2CCN(c2ncccc2C(F)(F)F)CC3)cc1 [Example 383, 2-Methyl-2-{4-[2-piperidin-1-yl-7-(3-trifluoromethyl-pyridin-2-yl)-6,7,8,9-tetrahydro-5H-pyrimido[4,5-d]azepin-4-ylamino]-phenyl}-propan-1-ol] | 6.80
CC(C)c1nc2c(c(Nc3ccc(C(F)(F)F)cc3)n1)CCN(c1ncc([N+](=O)[O-])cc1C(F)(F)F)CC2 [Example 291, 2-(1-Methylethyl)-7-[5-nitro-3-(trifluoromethyl)pyridin-2-yl]-N-[4-(trifluoromethyl)phenyl]-6,7,8,9-tetrahydro-5H-pyrimido[4,5-d]azepin-4-amine] | 6.77
CCS(=O)(=O)c1cccnc1N1CCc2nc(N3CCCCC3)nc(Nc3ccc(C(F)(F)F)cc3)c2CC1 [Example 297, 7-[3-(Ethylsulfonyl)pyridin-2-yl]-2-piperidin-1-yl-N-[4-(trifluoromethyl)phenyl]-6,7,8,9-tetrahydro-5H-pyrimido[4,5-d]azepin-4-amine] | 5.97
FC(F)(F)c1ccc(Nc2nc(SC3CCCCC3)nc3c2CCN(c2ncccc2C(F)(F)F)CC3)cc1 [Example 354, 2-(Cyclohexylsulfanyl)-N-[4-(trifluoromethyl)phenyl]-7-[3-(trifluoromethyl)pyridin-2-yl]-6,7,8,9-tetrahydro-5H-pyrimido[4,5-d]azepin-4-amine] | 6.60
COCc1nc2c(c(Nc3ccc(C(F)(F)F)c(Cl)c3)n1)CCN(c1ncccc1C(F)(F)F)CC2 [Example 80B, (3-Chloro-4-trifluoromethyl-phenyl)-[2-methoxymethyl-7-(3-trifluoromethyl-pyridin-2-yl)-6,7,8,9-tetrahydro-5H-pyrimido[4,5-d]azepin-4-yl]-amine trifluoroacetic acid salt] | 6.89
CC(C)c1nc2c(c(Nc3cccc(C(F)(F)F)c3)n1)CCN(c1ncccc1C(F)(F)F)CC2 [Example 10, [2-Isopropyl-7-(3-trifluoromethyl-pyridin-2-yl)-6,7,8,9-tetrahydro-5H-pyrimido[4,5-d]azepin-4-yl]-(3-trifluoromethyl-phenyl)-amine] | 6.03
FC(F)(F)c1ccc(Nc2nc(N3CCOCC3)nc3c2CCN(c2ncccc2C(F)(F)F)CC3)cc1 [Example 40, [2-Morpholin-4-yl-7-(3-trifluoromethyl-pyridin-2-yl)-6,7,8,9-tetrahydro-5H-pyrimido[4,5-d]azepin-4-yl]-(4-trifluoromethyl-phenyl)-amine] | 7.25
CC(C)(C)c1ccc(Nc2nc(N3CCCCC3)nc3c2CCN(c2ncccc2C(F)(F)F)CC3)cc1[N+](=O)[O-] [Example 159, N-[4-(1,1-Dimethylethyl)-3-nitrophenyl]-2-piperidin-1-yl-7-[3-(trifluoromethyl)pyridin-2-yl]-6,7,8,9-tetrahydro-5H-pyrimido[4,5-d]azepin-4-amine] | 7.52
Cc1cc([N+](=O)[O-])cnc1N1CCc2nc(C(C)C)nc(Nc3ccc(C(F)(F)F)cc3)c2CC1 [Example 87, [2-Isopropyl-7-(3-methyl-5-nitro-pyridin-2-yl)-6,7,8,9-tetrahydro-5H-pyrimido[4,5-d]azepin-4-yl]-(4-trifluoromethyl-phenyl)-amine] | 6.46
FC(F)(F)c1ccc(Nc2nc(OC3CCOCC3)nc3c2CCN(c2ncccc2C(F)(F)F)CC3)cc1 [Example 339, 2-(Tetrahydro-2H-pyran-4-yloxy)-N-[4-(trifluoromethyl)phenyl]-7-[3-(trifluoromethyl)pyridin-2-yl]-6,7,8,9-tetrahydro-5H-pyrimido[4,5-d]azepin-4-amine] | 6.72
CC(C)c1nc2c(c(Nc3ccc(S(=O)(=O)C(F)(F)F)cc3)n1)CCN(c1ncccc1C(F)(F)F)CC2 [Example 101B, [2-Isopropyl-7-(3-trifluoromethyl-pyridin-2-yl)-6,7,8,9-tetrahydro-5H-pyrimido[4,5-d]azepin-4-yl]-(4-trifluoromethanesulfonyl-phenyl)-amine trifluoroacetic acid salt] | 6.00
FC(F)(F)c1ccc(Nc2nc(-c3ccncc3)nc3c2CCN(c2ncccc2C(F)(F)F)CC3)cc1Cl [Example 169, N-[3-Chloro-4-(trifluoromethyl)phenyl]-2-pyridin-4-yl-7-[3-(trifluoromethyl)pyridin-2-yl]-6,7,8,9-tetrahydro-5H-pyrimido[4,5-d]azepin-4-amine] | 6.00
CC(C)(C)c1ccc(Nc2nc(N3CCC3)nc3c2CCN(c2ncccc2C(F)(F)F)CC3)cc1 [Example 249, 2-Azetidin-1-yl-N-[4-(1,1-dimethylethyl)phenyl]-7-[3-(trifluoromethyl)pyridin-2-yl]-6,7,8,9-tetrahydro-5H-pyrimido[4,5-d]azepin-4-amine] | 6.08
FC(F)(F)c1ccc(Nc2nc(N3CCC3)nc3c2CCN(c2ncccc2C(F)(F)F)CC3)nc1 [Example 197, 2-Azetidin-1-yl-7-[3-(trifluoromethyl)pyridin-2-yl]-N-[5-(trifluoromethyl)pyridin-2-yl]-6,7,8,9-tetrahydro-5H-pyrimido[4,5-d]azepin-4-amine trifluoroacetic acid salt] | 6.82
CC(C)(C)c1ccc(Nc2ncnc3c2CCN(c2ncccc2C(F)(F)F)CC3)cc1 [Example 1, (4-tert-Butyl-phenyl)-[7-(3-trifluoromethyl-pyridin-2-yl)-6,7,8,9-tetrahydro-5H-pyrimido[4,5-d]azepin-4-yl]-amine] | 7.05
CC(C)c1nc2c(c(Nc3ccc4c(c3)N(C)CCC4)n1)CCN(c1ncccc1C(F)(F)F)CC2 [Example 161, [2-Isopropyl-7-(3-trifluoromethyl-pyridin-2-yl)-6,7,8,9-tetrahydro-5H-pyrimido[4,5-d]azepin-4-yl]-(1-methyl-1,2,3,4-tetrahydro-quinolin-7-yl)-amine] | 6.89
CN(C)c1nc2c(c(NCc3ccc(C(F)(F)F)nc3)n1)CCN(c1ncccc1C(F)(F)F)CC2 [Example 218, N^2,N^2-Dimethyl-7-[3-(trifluoromethyl)pyridin-2-yl]-N^4-{[6-(trifluoromethyl)pyridin-3-yl]methyl}-6,7,8,9-tetrahydro-5H-pyrimido[4,5-d]azepine-2,4-diamine trifluoroacetic acid salt] | 6.92
CC1CCCN(c2nc3c(c(Nc4ccc(C(F)(F)F)cc4)n2)CCN(c2ncccc2C(F)(F)F)CC3)C1 (stereo not shown) [Example 240, 2-(3-Methylpiperidin-1-yl)-N-[4-(trifluoromethyl)phenyl]-7-[3-(trifluoromethyl)pyridin-2-yl]-6,7,8,9-tetrahydro-5H-pyrimido[4,5-d]azepin-4-amine trifluoroacetic acid salt] | 7.70
FC(F)(F)c1ccc(Nc2nc(OC3CCCCCC3)nc3c2CCN(c2ncccc2C(F)(F)F)CC3)cc1 [Example 336, 2-(Cycloheptyloxy)-N-[4-(trifluoromethyl)phenyl]-7-[3-(trifluoromethyl)pyridin-2-yl]-6,7,8,9-tetrahydro-5H-pyrimido[4,5-d]azepin-4-amine] | 5.79
CC(C)c1nc2c(c(Nc3ccc(C#N)cc3)n1)CCN(c1ncccc1C(F)(F)F)CC2 [Example 97, 4-[2-Isopropyl-7-(3-trifluoromethyl-pyridin-2-yl)-6,7,8,9-tetrahydro-5H-pyrimido[4,5-d]azepin-4-ylamino]-benzonitrile] | 6.31
O=S(=O)(c1ccc(Nc2nc(OC3CCCCC3)nc3c2CCN(c2ncccc2C(F)(F)F)CC3)cc1)C(F)(F)F [Example 308, 2-(Cyclohexyloxy)-7-[3-(trifluoromethyl)pyridin-2-yl]-N-{4-[(trifluoromethyl)sulfonyl]phenyl}-6,7,8,9-tetrahydro-5H-pyrimido[4,5-d]azepin-4-amine] | 6.44
CC1OCCC1Sc1nc2c(c(Nc3ccc4c(c3)N(C)CCC4(C)C)n1)CCN(c1ncccc1C(F)(F)F)CC2 (stereo not drawn) [Example 374, 2,5-Anhydro-1,4-dideoxy-3-thio-3-S-{7-[3-(trifluoromethyl)pyridin-2-yl]-4-[(1,4,4-trimethyl-1,2,3,4-tetrahydroquinolin-7-yl)amino]-6,7,8,9-tetrahydro-5H-pyrimido[4,5-d]azepin-2-yl}pentitol] | 8.40
FC(F)(F)c1ccc(Nc2nc(N3CCCCC3)nc3c2CCN(c2ncccc2C(F)(F)F)CC3)nc1 [Example 250, 2-Piperidin-1-yl-7-[3-(trifluoromethyl)pyridin-2-yl]-N-[5-(trifluoromethyl)pyridin-2-yl]-6,7,8,9-tetrahydro-5H-pyrimido[4,5-d]azepin-4-amine] | 7.05
CN1CCC(Oc2nc3c(c(Nc4ccc(C(F)(F)F)cc4)n2)CCN(c2ncccc2C(F)(F)F)CC3)CC1 [Example 311, 2-[(1-Methylpiperidin-4-yl)oxy]-N-[4-(trifluoromethyl)phenyl]-7-[3-(trifluoromethyl)pyridin-2-yl]-6,7,8,9-tetrahydro-5H-pyrimido[4,5-d]azepin-4-amine] | < 4.70
CC(C)(O)c1ccc(Nc2nc(N3CCOCC3)nc3c2CCN(c2ncccc2C(F)(F)F)CC3)cc1 [Example 389, 2-{4-[2-Morpholin-4-yl-7-(3-trifluoromethyl-pyridin-2-yl)-6,7,8,9-tetrahydro-5H-pyrimido[4,5-d]azepin-4-ylamino]-phenyl}-propan-2-ol] | 6.49

Same assay, conditions: read-out: Rat IC50; hydrochloride salt

Compound | pIC50
FC(F)(F)c1ccc(Nc2nc(C3CC3)nc3c2CCN(c2ncccc2C(F)(F)F)CC3)cc1 [Example 5A, [2-Cyclopropyl-7-(3-trifluoromethyl-pyridin-2-yl)-6,7,8,9-tetrahydro-5H-pyrimido[4,5-d]azepin-4-yl]-(4-trifluoromethyl-phenyl)-amine hydrochloride salt] | 6.72
